Several values for one entry are separate records, joined by “and”; a condition that tells them apart may be missing. Equal entries are not always repeated.
What was measured:
hCB1 = hCB1 (Homo sapiens, UniProt P21554); assay: Tango β-arrestin-2 recruitment, HTLA cells, CB1R; assay type: cell-based; design: expressed in transfected cells; host or cells: HTLA cells (gift of R. Axel), transient transfection
CB1 (rCB1) = CB1 (rCB1) (Rattus norvegicus, UniProt P20272); assay: Radioligand competition binding, [3H]-CP-55,940, rat brain membranes
Chain of CB1 (rCB1) (P20272 whole entry): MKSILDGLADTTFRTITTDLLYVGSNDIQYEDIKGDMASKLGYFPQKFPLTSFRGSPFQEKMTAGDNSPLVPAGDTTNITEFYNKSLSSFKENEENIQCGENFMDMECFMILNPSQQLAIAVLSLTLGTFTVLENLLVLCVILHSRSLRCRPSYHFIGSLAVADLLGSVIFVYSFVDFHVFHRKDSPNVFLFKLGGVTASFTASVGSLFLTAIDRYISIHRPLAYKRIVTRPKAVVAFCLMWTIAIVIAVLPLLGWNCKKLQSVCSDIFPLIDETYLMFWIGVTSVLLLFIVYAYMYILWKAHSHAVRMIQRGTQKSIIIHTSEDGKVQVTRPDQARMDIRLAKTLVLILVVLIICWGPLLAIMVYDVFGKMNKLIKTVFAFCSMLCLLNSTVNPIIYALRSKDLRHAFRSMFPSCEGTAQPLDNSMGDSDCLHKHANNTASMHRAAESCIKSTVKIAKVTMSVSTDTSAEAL

Chain of hCB1 (P21554 whole entry): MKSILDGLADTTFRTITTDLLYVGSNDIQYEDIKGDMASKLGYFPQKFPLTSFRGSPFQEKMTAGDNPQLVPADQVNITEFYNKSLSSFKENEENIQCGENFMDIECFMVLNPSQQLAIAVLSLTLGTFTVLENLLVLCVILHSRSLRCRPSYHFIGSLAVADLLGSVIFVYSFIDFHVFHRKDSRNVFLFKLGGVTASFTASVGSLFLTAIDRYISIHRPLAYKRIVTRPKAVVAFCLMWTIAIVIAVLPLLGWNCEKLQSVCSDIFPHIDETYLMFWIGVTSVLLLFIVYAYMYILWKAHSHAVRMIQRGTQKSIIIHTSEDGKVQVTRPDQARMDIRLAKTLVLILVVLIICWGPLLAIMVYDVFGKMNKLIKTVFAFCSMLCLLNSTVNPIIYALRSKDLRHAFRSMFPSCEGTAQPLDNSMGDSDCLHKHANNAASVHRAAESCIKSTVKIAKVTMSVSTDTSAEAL

Q: For `COC(=O)C(NC(=O)c1cc(C)n(-c2cccc(C(F)(F)F)c2)n1)c1cccs1` (centres unmarked) [‘60154], which Emax (hCB1; HTLA, hCB1, read-out: Tango ß-arrestin recruitment Emax) is on record?
A: 39%

Q: What about the “response, replicate values of concentration-response curve (FigS7f)” value (“response, replicate values” below) (hCB1; Log[drug], M = -4.52) of the same compound?
A: 20.429 and 104.707 and 123.061 and 26.6803 and 2.239 and 9.553 and 21.4993 and 25.3085 and 22.5804

Q: And the “response at Log[drug], M -4.52 (FigS4e)” value (hCB1; Log[drug], M = -4.52, individual replicates)?
A: 36.2928 and 40.0634 and 37.595 and 38.9593 and 35.7322 and 28.0596 and 40.2042 and 37.7287 and 36.7316 and 48.023 and 52.3904 and 37.2251

Q: What about the “response, replicate values” value (hCB1; Log[drug], M = -5) of the same compound?
A: 29.3399 and 77.9872 and 24.9124 and 21.905 and 24.6119 and -7.914 and 14.0694 and 22.9469 and 35.7257 and 39.8379 and 27.6728 and 20.59

Q: And the “response at Log[drug], M -5 (FigS4e)” value (hCB1; Log[drug], M = -5, individual replicates)?
A: 27.1965 and 33.9994 and 36.3175 and 44.6129 and 35.5189 and 28.3176 and 42.1758 and 38.9685 and 43.9354 and 46.1208 and 46.0399 and 37.7973

Q: What about the “response, replicate values” value (hCB1; Log[drug], M = -5.52) of the same compound?
A: 24.9035 and 48.7158 and 91.1283 and -6.947 and -26.9779 and -11.1207 and 46.9121 and 22.8407 and -5.557 and 12.4866 and 10.6983 and 18.3267

Q: What about the “response at Log[drug], M -5.52 (FigS4e)” value (hCB1; Log[drug], M = -5.52, individual replicates) of the same compound?
A: 25.9735 and 23.5078 and 35.2885 and 29.1149 and 28.5437 and 33.06 and 31.1872 and 38.5344 and 34.9915 and 38.6816 and 30.9446 and 24.7853

Q: What about the “response, replicate values” value (hCB1; Log[drug], M = -6) of the same compound?
A: 35.6397 and 64.0988 and 28.3754 and -0.07579 and -2.1717 and -13.0474 and 37.7825 and -1.0184 and -20.7108 and 24.6113 and 35.271 and 22.6916

Q: And the “response at Log[drug], M -6 (FigS4e)” value (hCB1; Log[drug], M = -6, individual replicates)?
A: 18.7026 and 18.3517 and 20.9876 and 21.9355 and 21.9032 and 30.9802 and 39.6213 and 23.6016 and 27.6778 and 23.7782 and 27.0192 and 15.1437

Q: What about the “response, replicate values” value (hCB1; Log[drug], M = -6.52) of the same compound?
A: 40.4184 and 15.2889 and -15.0213 and 0.4345 and 12.418 and 31.9131 and 56.5195 and 30.6699 and -7.454 and 15.9018 and 24.7629 and -25.11

Q: What about the “response at Log[drug], M -6.52 (FigS4e)” value (hCB1; Log[drug], M = -6.52, individual replicates) of the same compound?
A: 2.7065 and 1.809 and 4.4042 and 2.4679 and 5.955 and 7.47 and 7.413 and 8.766 and 8.7 and 7.813 and 3.502 and 4.219

Q: What about the “response, replicate values” value (hCB1; Log[drug], M = -7) of the same compound?
A: 42.117 and 22.4701 and 33.4423 and -35.9633 and 6.562 and -3.7308 and 26.543 and 5.232 and -0.3284 and 16.0836 and -9.206 and -14.6626

Q: And the “response at Log[drug], M -7 (FigS4e)” value (hCB1; Log[drug], M = -7, individual replicates)?
A: -0.1594 and 1.156 and 1.734 and 0.4738 and 1.35 and 4.375 and 5.525 and -1.39 and -1.9125 and 2.9502 and 2.623 and 0.09812

Q: And the “response, replicate values” value (hCB1; Log[drug], M = -7.52)?
A: 9.097 and 42.2455 and 14.1224 and 6.121 and -38.1578 and 8.235 and 7.554 and -8.104 and 19.7008 and -1.133 and -13.7734

Q: And the “response at Log[drug], M -7.52 (FigS4e)” value (hCB1; Log[drug], M = -7.52, individual replicates)?
A: -0.8122 and -1.1619 and -0.1273 and 2.722 and 1.436 and 3.312 and 3.337 and -1.53 and 0.254 and -0.2279 and 0.3901 and 2.167

Q: And the “response at Log[drug], M -8 (FigS4e)” value (hCB1; Log[drug], M = -8, individual replicates)?
A: -0.5798 and -1.11 and -0.9423 and 0.6357 and 0.4201 and 2.003 and 3.003 and -1.545 and 0.894 and 0.1363 and 0.04065 and -0.5839

Q: What about the “response at Log[drug], M -8.52 (FigS4e)” value (hCB1; Log[drug], M = -8.52, individual replicates) of the same compound?
A: -0.1435 and -1.173 and 0.8807 and -1.256 and 3.396 and 0.2695 and 3.693 and -1.556 and 1.54 and 0.762 and 0.3566 and -1.166

Q: What about the “response at Log[drug], M -9 (FigS4e)” value (hCB1; Log[drug], M = -9, individual replicates) of the same compound?
A: -0.3789 and 0.9257 and 0.4985 and -1.1206 and 0.6246 and 1.649 and 1.459 and 1.082 and -0.1538 and 1.773 and 1.969 and 1.368

Q: And the “response, replicate values” value (hCB1; Log[drug], M = -9.52)?
A: 41.217 and -5.872 and -26.7955 and -2.208 and 11.6321 and -16.1909 and 10.2609 and 13.9367 and -21.8387 and 26.5917

Q: And the “response at Log[drug], M -9.52 (FigS4e)” value (hCB1; Log[drug], M = -9.52, individual replicates)?
A: -0.6308 and 0.506 and 1.398 and 0.3411 and 1.417 and 1.054 and 1.983 and 0.4806 and -1.1508 and 1.754 and 1.621 and -0.4835

Q: And the “response, replicate values” value (hCB1; Log[drug], M = -10)?
A: 24.3711 and 8.545 and -42.2513 and 15.4728 and -21.9203 and 6.572 and 26.8747 and -5.278 and 28.0467 and 13.9517

Q: What about the “response at Log[drug], M -10 (FigS4e)” value (hCB1; Log[drug], M = -10, individual replicates) of the same compound?
A: -0.3624 and -0.5584 and 1.6 and 1.1356 and 0.03407 and 2.157 and 0.3066 and -2.677 and -0.1348 and -0.07275 and 2.928 and 0.8882

Q: What about the “response at Log[drug], M -10.52 (FigS4e)” value (hCB1; Log[drug], M = -10.52, individual replicates) of the same compound?
A: -0.1972 and -0.5734 and -0.1162 and -0.5884 and 2.053 and 3.553 and 2.404 and 0.5855 and 0.2182 and 0.2755 and 0.7811 and -2.185

Q: What about the “response at Log[drug], M -11 (FigS4e)” value (hCB1; Log[drug], M = -11, individual replicates) of the same compound?
A: -0.4863 and -0.2436 and -0.1687 and -1.788 and -0.3582 and 1.843 and 0.2942 and 1.859 and 1.201 and 2.6701 and -0.898 and 1.465

Q: What about the “response at Log[drug], M -11.52 (FigS4e)” value (hCB1; Log[drug], M = -11.52, individual replicates) of the same compound?
A: -1.461 and -1.915 and -0.401 and -1.735 and -0.6638 and -0.2757 and -0.3004 and 0.6619 and 0.7048 and -0.5021 and 3.748 and -0.3785

Q: What about the “response at Log[drug], M -12 (FigS4e)” value (hCB1; Log[drug], M = -12, individual replicates) of the same compound?
A: 0.3314 and 0.2511 and -0.1836 and 1.061 and -0.3335 and 0.1951 and -0.1931 and -0.7644 and -0.8837 and -0.1348 and 1.783 and -1.1281

Q: And the “Tango ß-arrestin recruitment pEC50” value (hCB1; hCB1)?
A: 6.1 [6.0 – 6.1]

Q: And the EC50 (hCB1; hCB1, read-out: Tango ß-arrestin recruitment EC50)?
A: 819 nM

Q: And the “improvement in affinity (free energy)” value (CB1 (rCB1); CF3 replacing F, ‘51486 vs ‘60154)?
A: -1.7 kcal/mol

Q: And the “LLE (lipophilic ligand efficiency)” value (CB1 (rCB1); LLE = pIC50 − clogP)?
A: 3.5

Q: What about the “binding free energy ΔG” value (CB1 (rCB1); from measured Ki) of the same compound?
A: 10.0 kcal/mol

Q: What about the “LE (ligand efficiency)” value (CB1 (rCB1); from rCB1 affinity) of the same compound?
A: 0.36

Q: And the “pKi [95% CI]” value (CB1 (rCB1); rCB1)?
A: 7.4 [7.2 – 7.5]

Q: What about the Ki (CB1 (rCB1); read-out: Ki [95% CI], rCB1, [3H]-CP-55,940) of the same compound?
A: 44 nM and 44.3 nM

Q: And the “fold improvement in CB1R affinity” value (CB1 (rCB1); vs parent hit or analog without the change)?
A: 17 fold

— article PMC11882969 (Nature Communications, 2025)
